One experiment concerns the target T1, human MCP (Homo sapiens, UniProt P28074+Q99436).
T1 construct: Samples of human liver and brain obtained post-mortem were used for isolation and partial purification of MCP; from tissue; host or cells: human liver and brain, post-mortem
As to the kind of experiment: Determination of IC50 values for MCP inhibitors (chymotrypsin-like or trypsin-like activity of MCP). The conditions noted are these: Table 5, first series; enzyme incubated with inhibitor 15 minutes at 37° C. prior to substrate. The class given is biochemical. Here is the method:
Samples of human liver and brain obtained post-mortem were used for isolation and partial purification of MCP by ion-exchange chromatography, ammonium sulfate precipitation, and gel filtration (e.g., Driscoll and Goldberg, Proc. Natl. Acad. Sci. 86, 787-791 (1989); Yamamoto et al., Biochim, Biophys. Acta 882, 297-304 (1986). For either starting material, tissue was homogenized in 10 volumes of 20 mM Tris-HCl (pH 7.5) containing 20% glycerol. Following centrifugation at 40,000×g for 30 minutes, proteolytic activity of the chymotrypsin-like component of MCP could be detected in the supernatant (see below). The supernatant was fractionated on a DEAE-Sepharose Fast Flow column equilibrated in homogenization buffer. For each liter of supernatant, 250 ml of resin was used. Following sample loading, the column was washed with ^~ 10 volumes homogenization buffer, and proteins were eluted with a linear NaCl gradient of from 0 to 400 mM (21 for 250 ml resin). Fractions were assayed for MCP activity, and the active fractions were pooled and subjected to precipitation with (NH4)2 SO4 at 80% saturation. Precipitated proteins were collected by centrifugation, resuspended in homogenization buffer, and loaded on a Sephacryl S300HR column (500 ml resin volume) that had been standardized using bovine serum albumin (68 kDa). A single peak of MCP activity was eluted with a molecular weight of ^~ 650 kDa. This preparation was free of other measurable proteolytic activities and maintained its MCP activity upon storage at 4° C. for >6 months. This preparation was used for most of the experiments. Further fractionation of the preparation on an hydroxyapatite-Ultrogel column (Yamamoto et al., supra) yielded a more highly purified enzyme, which according to denaturing SDS-polyacrylamide gel electrophoresis was comprised of the expected >10 subunits ranging in Mr from 20 to 35 kDa.
The procedure for MPC isolation described above generated an enzyme complex whose proteolytic activities were latent, but which could be activated by addition of low concentrations (0.02-0.05%) of SDS (Yamamoto et al., supra). The chymotrypsin-like activity was assayed according to the following procedure: in 96 well microtiter plates, human MCP was diluted 4 to 10-fold in homogenization buffer containing 0.04% SDS. A calorimetric substrate MeOSuc-EVKM-para-nitroanilide (methoxysuccinyl-Glu-Val-Lys-Met-pNa), purchased from Bachem Bioscience Inc., King of Prussia, Pennsylvania was added to a final concentration of 100 μM from a stock solution of 10 mM in dimethylsulfoxide. Reaction volumes were 200 μl per well. After incubation for various periods of time at 37° C., the concentration of free pNa was determined on a Biotech EL-340 microplate reader, reading absorption at 490 nm. Protease activity was determined under conditions in which substrate hydrolysis increased linearly with time and the change in absorption was proportional to the concentration of free pNa. Alternatively, a fluorogenic substrate was used, methoxysuccinyl-Phe-Leu-Phe-amidomethylcoumarin (Enzyme Systems Products, Dublin, Calif.), and the change in fluorescence monitored at an excitation of 390 nm, and an emission at 460 nm.
The trypsin-like activity of human MCP was assayed as described above with the following modifications. Reactions were carried out in Tris-glycerol buffer (pH 9.5) supplemented with 1 mM 2-mercaptoethanol, and the substrate was a fluorogenic substrate, Benzyloxycarbonyl--Phe--Arg--AMC (100 μM).
After incubation for various periods of time at 37° C., the concentration of free AMC was determined on a Fluoroskan II spectrofluorimeter with an excitation filter of 390 nm and an emission filter of 460 nm. Protease activity was determined under conditions in which substrate hydrolysis increased linearly with time and the change in fluorescence was proportional to the concentration of free AMC. […]

In experiment [1] the test system is unweighting atrophy of the soleus muscle. As to the kind of experiment: Inhibition of unweighting atrophy of the soleus muscle in juvenile rats (muscle protein content). The format is in vivo, rat. The conditions noted are these: for Protein, End (day 3 of unweighting) / Effect (%), change in protein content during day 3 of unweighting: Table 2; for Protein, End (day 3 of unweighting): 24 hours after in situ soleus injection at day 2 of unweighting, mersalyl 200 nM aqueous; for Protein, End (day 3 of unweighting) / Protein, Treatment (unweighted muscle): MCP inhibitor 1 mM in DMSO; for Effect (%), change in protein content during day 3 of unweighting: End versus Start (estimated day 2 content); for Effect (%) on unweighted muscle protein / Protein, Treatment (unweighted muscle): Table 3; for Effect (%) on unweighted muscle protein: Treatment versus Vehicle contralateral muscle; for Protein, Treatment (unweighted muscle): treated soleus, contralateral muscle received vehicle, mersalyl 200 nM. Here is the method: The effect of several inhibitors on the unweighting atrophy of the soleus muscle in juvenile rats was determined. See Tischler, M. E. (1990) Metabolism 39/7: 756-763 (hereinafter "Tischler--1990") for a general discussion of the procedure.
(§1) Juvenile female Sprague-Dawley rates (80-90 g) were tail-cast, hind limb suspended as in Jetspers, S. R. and Tischler, M. E., (1984) J. Appl. Physiol. 57: 1472-1479. The animal's hind limbs were elevated above the floor of the cage with each animal housed individually. Animals had free access to food and water, and were weighed at the time of suspension and at time of termination. During the suspension period the animals were checked daily to ensure that their toes were not touching the floor of the cage, and that there was no swelling of the tail due to the cast.
Each experiment began with the suspension of 20 rats which were randomly divided into 4 groups of 5 animals each. Group A was suspended for just 2 days and provided baseline data to approximate the soleus muscle size in other animals suspended for longer times. Average body weights for the groups at the outset of the study were compared and used as a correction factor for body size differences. […] See Tischler--1990. At 2 days after unweighting commenced, an aqueous solution of mersalyl (200 nM; 4 μl/100 g initial body wt) was injected into one soleus, as described previously. The contralateral muscle was injected with a similar volume of 0.9% saline ("Vehicle"). The animals were maintained under Innovar-vet (10 μl/100 g body wt) tranquilization during the in situ injection procedure. After the injections, the animals were suspended for an additional 24 hours and the soleus was removed. Groups C and D for each experiment were used for testing each of two different embodiments of the disclosed compounds.
(§2) Animals were treated as in group B, except that 1 mM MCP inhibitor, contained in dimethysulfoxide (DMSO), was injected into the soleus of one leg and DMSO only into the contralateral soleus. Thus each experiment consisted of two control groups and the testing of MCP inhibitors of the invention. The completion of five such experiments with different pairs of inhibitors provided for an "n" value of 10 for testing each MCP inhibitor and with each tested in two different shipments of animals.
(§3) After the animal was sacrificed, the soleus was excised, trimmed of fat and connective tissue, and carefully weighed. The muscle was then homogenized in 10% trichloroacetic acid (TCA) and the precipitated protein pelleted by centrifugation. The pellet was then washed once with 10% TCA and once with ethanol:ether (1:1). The final pellet was solubilized in 4 ml of 1N sodium hydroxide. The sample was then analyzed for protein content by the biuret procedure, using albumin as a standard.
The effect of MCP inhibitors on total muscle protein content was examined primarily by paired comparison with the untreated contralateral muscle. The ratio of contents was calculated and then analyzed statistically by analysis of variance ("ANOVA"). The left leg was always the treated leg so that the protein content ratios could be compared to the non-treated control animals as well. In this way, a significant difference can be shown by comparing the protein content of the two legs, as well as the relative effectiveness of the tested MCP inhibitors. A paired student test was also performed for the effect of each separate treatment. The non-treated control data also provided an estimate of protein content of day 2. This allowed approximation of the protein changes over the 24 hours of treatment for each of the Groups B, C, and D.

Experiment [2] relates to Ile113→Thr mutant SOD-1 in human 293 cells. As to the kind of experiment: SOD-1 levels in transiently transfected 293 cells (immunoblot). As to conditions: 5 μM, 24 hours, FIG. 5. (In western blotting, separated proteins are transferred to a membrane and probed.)
Procedure: The human kidney cell line designated 293 (human 293 cells or 293 cells)was obtained from the American Type Culture Collection (ATCC), 12301 Parklawn Drive, Rockville, Md., 20852 (ATCC #CRL 1573) and grown in Dulbecco's modified Eagle's medium with 4.6 g/L glucose, 10% heat-inactivated horse serum (Gibco/Life Technologies Inc. Gaithersburg, Md.). The human 293 cells were maintained at 37° C. in an atmosphere of 5% CO2. The 293 cells were transiently transfected using the calcium phosphate method (Chen, C. et al., Biotechniques 6: 632 (1988). The pCMV-113 SOD-1 expression vector was introduced into 293 cells and 24 hours later, the cells were incubated with either compound 34, compound 14, or compound 24, all at a concentration of 5 μM, for a duration of 24 hours. The known MCP and other protease inhibitory compounds were solubilized in dimethyl sulfoxide (DMSO). Other 293 cell cultures were incubated with an equal volume of DMSO or left in medium only as negative controls.
Approximately 48 hours prior to receiving test compounds, 5×10^5 293 cells were seeded in 36 mm dishes and maintained at 37° C. in an atmosphere of 5% CO2. Cells were incubated with MCP inhibitors (compound 34, 14 or 24) or with DMSO as a negative control for a duration of 24 hours. Cell lysates were prepared by lysing the cells in approximately 75 μl of phosphate-buffered saline (PBS) by freeze/thaw cycling. Protein concentrations of the cell lysates were determined using the BCA method (Pierce, Rockford, Ill.) and 2 to 2.5 μg of each sample was electrophoresed on a 4-20% polyacrylamide geol (Novex, San Diego, Calif.) using a Tris/glycine/SDS (25 mM Tris/192 mM glycine/0.1% SDS) buffer system. […] Stained bands corresponding to SOD-1 protein were quantitated using a DocuGel V image analysis system and RFLPscan software (Scanalytics, Billerica, Mass.). Levels of SOD-1 are expressed as units of induction relative to the negative control (i.e., units of experimental divided by units of control).
For the next experiment, the system named is control soleus muscle. Kind of experiment: Effect of MCP inhibitors on control muscle protein content. The format is in vivo, rat. The conditions noted are these: Table 1; treated soleus versus vehicle-injected contralateral muscle.
Text: as §1, §2, §3
The effect of MCP inhibitors on total muscle protein content was examined primarily by paired comparison with the untreated contralateral muscle. The ratio of contents was calculated and then analyzed statistically by analysis of variance ("ANOVA"). The left leg was always the treated leg so that the protein content ratios could be compared to the non-treated control animals as well. In this way, a significant difference can be shown by comparing the protein content of the two legs, as well as the relative effectiveness of the tested MCP inhibitors. […]

What is called IC50 is the concentration that gives 50% inhibition. `CC(C)C[C@@H](C=NNC(N)=O)NC(=O)[C@H](CCCNC(=N)N[N+](=O)[O-])NC(=O)C(CCCCCCCCC#N)C1CCCC1` (stereo partly drawn) [Compound 16, 10-cyano-2-cyclopentyl-decanoyl-N g-nitro-L-arginyl-L-leucinal semicarbazone]: inhibition against human MCP was half-maximal at 100 nM (IC50). In experiment [1], the “Protein, End (day 3 of unweighting)” value is 6.0 mg/muscle; the “Effect (%), change in protein content during day 3 of unweighting” value (from here on “Effect (%), change”) is on record as -5%; the “Effect (%) on unweighted muscle protein” value amounted to 0%; the “Protein, Treatment (unweighted muscle)” value is on record as 6.0 mg/muscle.

`CC(C)C[C@@H](C=O)NC(=O)[C@H](CCCNC(=N)N[N+](=O)[O-])NC(=O)C(CCCCCCCCN1C(=O)c2ccccc2C1=O)C1CCCC1` (stereo partly drawn) [Compound 24, 2-cyclopentyl-10-N-phthalimido-decanoyl-N^g-nitro-L-arginyl-L-leucinal]: in experiment [2], the “SOD-1 levels compared to controls” value was “modestly elevated”. Inhibition against human MCP was half-maximal at 2 nM (IC50).

As for `COC(=O)CCCCCCCC(=O)N[C@@H](CCCN=C(N)NS(=O)(=O)c1c(C)cc(OC)c(C)c1C)C(=O)N[C@H](C=O)CC(C)C` [Compound 34, Monomethylazelayl-N^g-(4-methoxy,2,3,6-trimethylbenzene-1-sulfonyl)-L-arginyl-L-leucinal], the “SOD-1 levels compared to controls” value in experiment [2] was “modestly elevated”. This molecule also displayed an IC50 against human MCP of 80 nM. Further, in the experiment with control soleus muscle, the “Protein, Treatment (control muscle)” value is 6.3 mg/muscle. Also, in experiment [1], the “Protein, End (day 3 of unweighting)” value was determined as 6.6 mg/muscle; the “Effect (%), change” value was “+5%”; the “Effect (%) on unweighted muscle protein” value is listed as 12%; the “Protein, Treatment (unweighted muscle)” value was found to be 6.6 mg/muscle.

Regarding `COC(CNC(=O)c1ccccc1OCC(=O)O)[CH2][Hg][OH]` (stereo not drawn) [Mersalyl, reference compound], in experiment [1], the “Protein, End (day 3 of unweighting)” value is on record as 6.6 mg/muscle; the “Effect (%), change” value is “+3%”; the “Effect (%) on unweighted muscle protein” value is 14%; the “Protein, Treatment (unweighted muscle)” value was found to be 6.6 mg/muscle.

The values above are taken from patent US5990083A, “Multicatalytic protease inhibitors” (Cephalon, Inc., priority 1997, dated 1999).
